Consider six molecules from patent publication US11655268B2, “Nucleoside or nucleotide derivatives, and uses thereof” (ST Pharm Co., Ltd., priority 2018, dated 2023).

Read-outs that look alike come from different tables or passages of the source. Where only a bound is given, the exact number is not on record here.

A short description of series [1]: in vitro. Conditions: dog.
Another series has as its system CHIKV. The series can be described thus: Cytopathic effect reduction, Chikungunya virus in Vero cells, MTT. Conditions: 72 h, read-out: EC50 CHIKV. The series is classed as cell-based. (In general: Protection from cytopathic effect is a common read-out in antiviral testing.)
Series [2] can be described thus: in vitro. Conditions: human.
For another series, the system named is MERS-CoV. Description: microbe, parasite or virus in culture. The series is classed as cell-based, MERS virus (MERS-CoV/KOR/KNIH/002_05_2015). Conditions: Middle East respiratory syndrome-related coronavirus, Huh-7, 72 h, read-out: EC50 MERS-CoV.
In the next series the test system is Influenza virus B/Lee/40. Description: Cytopathic effect reduction, influenza B Lee in MDCK cells, MTT. The series is classed as cell-based. Conditions: for Selectivity index FluB Lee: CC50/EC50; for EC50: read-out: Anti-Flu activity EC50 FluB Lee.
A short description of series [3]: Cytotoxicity (CC50) in Vero cells. Conditions: African green monkey.
A further series concerns DENV. The series can be described thus: Reduction in viral infection, dengue virus in Vero cells, immunofluorescence (4G2 antibody). The series is classed as cell-based, Dengue virus New Guinea C (NGC). Conditions: 72 h, read-out: EC50 DENV.
For another series, the system named is ZIKV. Description: Reduction in viral infection, zika virus in Vero cells, immunofluorescence (4G2 antibody). Conditions: 72 h, day 3 after infection. The series is classed as cell-based, Zikavirus (MR766).
For a further series, the system named is MDCK cells. Conditions: read-out: Toxicity CC50, day 3, MTT.
The nature of series [4]: in vitro. Conditions: cat.
In a further series the test system is FIPV. Description: Cytopathic effect reduction, FIPV in CRFK cells, MTT. The format is cell-based, feline infectious peritonitis virus (FIPV). Conditions: Alphacoronavirus 1, 72 h; CRFK cells, day 3 after infection; read-out: EC50 FIPV.
In the next series the test system is hCoV (229E). The series can be described thus: microbe, parasite or virus in culture. The series is classed as cell-based, Human coronavirus hCoV 229E. Conditions: MRC5, 72 h; MRC-5 cells, day 3 after infection; read-out: EC50 hCoV (229E).
Series [5] has as its system Madin-Darby Canine Kidney (MDCK) cells. Conditions: 100 μM for 3 days; cited from earlier work.
The nature of series [6]: in vitro. Conditions: human. The source holds these as a separate data set.
Where [7] appears, read: CC50 (CHIKV), Vero cells, CHIKV test, MTT.
Setting [8] is: CC50 (DENV), Vero cells, DENV test.

Consider `O=C(Nc1ccn(C2O[C@H](CO)[C@@H](O)[C@H]2F)c(=O)n1)c1ccc([N+](=O)[O-])cn1` (stereo in doubt) [Example 30, N-(1-((2S,3R,4R,5R)-3-fluoro-4-hydroxy-5-(hydroxymethyl)tetrahydrofuran-2-yl)-2-oxo-1,2-dihydropyrimidin-4-yl)-5-nitropicolinamide], for which the CC50 at 3 days in “in vitro [1]” is more than 100 µM; in “in vitro [2]”, more than 100 µM; in [3] (setting [7]), more than 100 µM; in series [3] (setting [8]), more than 100 µM; in series [3] (CC50, Vero cells, ZIKV test) it was more than 100 µM. In addition, the concentration giving a half-maximal response (EC50) (commonly the concentration that produces a half-maximal response) in the series with CHIKV is 62.5 µM; with MERS-CoV, more than 100 µM; in the series with Influenza virus B/Lee/40 (MDCK, 72 h) it was 6.5 µM; with DENV it was 77.9 µM; in the series with ZIKV it was more than 100 µM. Besides, the “Selectivity index FluB Lee” value in the series with Influenza virus B/Lee/40 is given as more than 15.4.

For `O=C(Nc1ccn(C2O[C@H](CO)[C@@H](O)[C@H]2F)c(=O)n1)c1cccnn1` (stereo in doubt) [Example 33, N-(1-((2S,3R,4R,5R)-3-fluoro-4-hydroxy-5-(hydroxymethyl)tetrahydrofuran-2-yl)-2-oxo-1,2-dihydropyrimidin-4-yl)pyridazine-3-carboxamide], the CC50 at 3 days is more than 100 µM in the series “in vitro [1]”; more than 100 µM in “in vitro [2]”; more than 100 µM in series [3] (setting [7]); more than 100 µM in [3] (setting [8]); more than 100 µM in [3] (CC50, Vero cells, ZIKV test). In addition, the EC50 is 86.4 µM with CHIKV; more than 100 µM in the series on MERS-CoV; 7.8 µM with Influenza virus B/Lee/40 (MDCK, 72 h); more than 100 µM in the series with DENV; more than 100 µM with ZIKV. Moreover, the “Selectivity index FluB Lee” value in the series on Influenza virus B/Lee/40 is recorded as more than 12.8.

Take `O=C(Nc1ccn(C2O[C@H](CO)[C@@H](O)[C@H]2F)c(=O)n1)c1ccncn1` (stereo in doubt) [Example 36, N-(1-((2S,3R,4R,5R)-3-fluoro-4-hydroxy-5-(hydroxymethyl)tetrahydrofuran-2-yl)-2-oxo-1,2-dihydropyrimidin-4-yl)pyrimidine-4-carboxamide]: the CC50 at 3 days in the series “in vitro [1]” was more than 100 µM; in the series “in vitro [2]”, more than 100 µM; in series [3] (setting [7]), more than 100 µM; in series [3] (setting [8]) it was more than 100 µM; in [3] (CC50, Vero cells, ZIKV test) it was more than 100 µM. Besides, the EC50 with CHIKV was 57.7 µM; in the series on MERS-CoV it was more than 100 µM; in the series with Influenza virus B/Lee/40 (MDCK, 72 h) it was 11.4 µM; in the series on DENV it was more than 100 µM; in the series on ZIKV, more than 100 µM. The “Selectivity index FluB Lee” value in the series on Influenza virus B/Lee/40 is more than 8.8.

For `N#Cc1ccc(C(=O)Nc2ccn(C3O[C@H](CO)[C@@H](O)[C@H]3F)c(=O)n2)nc1` (stereo in doubt) [Example 37, 5-cyano-N-(1-((2S,3R,4R,5R)-3-fluoro-4-hydroxy-5-(hydroxymethyl)tetrahydrofuran-2-yl)-2-oxo-1,2-dihydropyrimidin-4-yl)picolinamide], the CC50 at 3 days in the series “in vitro [1]” is more than 100 µM; in “in vitro [2]”, more than 100 µM; in [3] (setting [7]) it was more than 100 µM; in [3] (setting [8]), more than 100 µM; in series [3] (CC50, Vero cells, ZIKV test) it was more than 100 µM. For the same molecule, the concentration giving a half-maximal response (EC50) in the series with CHIKV is 51.7 µM; in the series with MERS-CoV, more than 100 µM; in the series with Influenza virus B/Lee/40 (MDCK, 72 h), 15.1 µM; with DENV, more than 100 µM; with ZIKV, more than 100 µM. Besides, the “Selectivity index FluB Lee” value in the series on Influenza virus B/Lee/40 was more than 6.6.

For the molecule `Nc1ccn([C@@H]2O[C@H](CO)[C@@H](O)[C@H]2F)c(=O)n1` [2′-FdC, reference compound], the CC50 with MDCK cells was more than 100 µM. The EC50 in the series with Influenza virus B/Lee/40 stood at 5.2 µM.

Take `Nc1ccn([C@@H]2O[C@H](CO)[C@@H](O)C2(F)F)c(=O)n1` [Gemcitabine, reference compound]: the CC50 is 241 µM in the series “in vitro [1]”, 92 µM in “in vitro [4]” and more than 100 µM in “in vitro [6]”. Besides, the concentration for a half-maximal effect (EC50) stood at 21 µM in the series on FIPV; 440 nM in the series on hCoV (229E); 1.1 µM in the series on MERS-CoV; 1.3 µM with Influenza virus B/Lee/40 (MDCK, 72 h). In addition, the CC50 at 3 days in the series “in vitro [2]” is more than 100 µM. Further, in the series with Influenza virus B/Lee/40, the “Selectivity index FluB Lee” value stood at 185.2. The cell death result in series [5] is given as “about 50%”.
